Reference: patent EP0198765A2, “Preparation of liposomes” (GEORGETOWN UNIVERSITY, priority 1985, dated 1986)

Columns and labels:
[1] = Percentage of entrapment of drugs in liposomes, determined by fluorescence after dialysis; type: physicochemical; settings: liposomes of cardiolipin, phosphatidyl choline, cholesterol, stearylamine-DTPA
Method: For the preparation of liposomes, 6 mg of doxorubicin or daunorubicin was added to 9 mg of cardiolipin solution and evaporated to dryness under N2. To this dried mixture were then added 22.5 mg of phosphatidyl choline, 7.5 mg cholesterol and 3 mg of stearylamine-DTPA. Again, the mixture was evaporated to dryness under N2.
The dried lipids and doxorubicin or daunorubicin were resuspended in 6 ml of 0.01 M phosphate buffer with 0.85% NaCl, pH 7.4 (PBS). After one-half-hour swelling time, the liposomes were stirred for 15 minutes, followed by sonication (Heat System, Model W-220F) in a fixed temperature bath at 37°C for 90 minutes. The non-entrapped doxorubicin or daunorubicin was separated from liposome-encapsulated drug by extensive dialysis against 0.001 M phosphate buffer with 0.85% NaCl, pH 7.4 at 4°C over a period of 20 hours with at least two changes of buffer solutions (250 ml/ml liposomes). […] The difference in encapsulation of these two drugs relates to their lipophilicity; daunorubicin is more lipophilic than doxorubicin. The liposomes were freshly prepared each day and were diluted with 0.01 M phosphate buffer (PBS) so as to administer doses of doxorubicin or daunorubicin equivalent to doses of free drugs for pharmacological, toxicological and therapeutic studies.

[2] = system: P388 leukemia; test: Antitumor studies against P388 leukemia in mice (median survival time, T/c); type: in vivo, CDF1 mice; settings: 24 hours after i.p. implant of 1x10^6 P388 cells, Treated/Control x 100
Method: To investigate the therapeutic effectiveness of doxorubicin and daunorubicin entrapped in liposomes, antitumor studies were performed against P388 leukemia in CDF1 mice. Groups of ten mice were implanted intraperitoneally with lxl0^6 cells of P388 tumor, and drug treatment was initiated on day one intraperitoneally or intravenously after tumor cell inoculation. Antitumor efficacy was expressed in leukemic animals by the increase in median survival time, in the dose-range used, compared to controls. Dead animals were autopsied and toxicity was established on the basis of macroscopic necropsy findings.

[3] = Lethal toxicity in normal mice; type: in vivo; settings: 20 mg/kg intraperitoneally, normal CDF1 mice, by day 10
Method: For comparison of lethal toxicity of free doxorubicin and doxorubicin entrapped in liposomes, normal CDF1 mice were administered a dose of 20 mg/kg intraperitonally. The mice were observed until day 80 post-drug administration. The control mice received blank liposomes representing the same concentration of the lipid used to entrap a dose of 20 mg/kg of doxorubicin. Mice in each group were weighed twice weekly and were observed daily.

[4] = Tissue disposition (heart, liver, spleen, lungs, kidney, intestine) in mice after i.v. administration; settings: doxorubicin 6 mg/kg i.v., CDF1 mice; at 15 minutes
Method: (§1) Male CDF1 mice weighing 20-25 g were used to evaluate the influence of liposome encapsulation on plasma levels and physiological disposition of daunorubicin and doxorubicin. Free or encapsulated daunorubicin or doxorubicin was administered intravenously via a lateral tail vein at a dose of 6 mg/kg at 2% body weight (0.02 ml/gm). At 5, 15, 30, 60, 120, 240, and 480 minutes and at 24 hours, mice in each group were bled from the orbital sinus. Blood was collected in heparinized tubes and centrifuged at 1500 rpm for 10 minutes. The plasma layer was separated and frozen. Mice were then killed by cervical dislocation, and the liver, kidney, heart, spleen, small intestine and lungs were excised, rinsed in normal saline, and stored at -20°C until assayed.
(§2) Plasma and tissues were analyzed for drug equivalents by the method of Formelli et al. (Cancer Chemotherapy and Pharmacology, 5, 129-144 (1981)) as modified in the inventor's laboratories. Plasma (0.25 ml) was diluted to 1 ml with distilled water, followed by addition of 0.2 ml of AgN03 (33% wt/vol). Tissues were homogenized in 1 ml of water in a polytron homogenizer. […] The butanol extract was read in a spectrofluorometer at 470 nm excitation and 585 nm emission. Control plasma and tissues obtained from mice treated with blank liposomes were treated the same way and read in the fluorometer to correct for any endogenous fluorescence. […]

[5] = Plasma levels in mice after i.v. administration of free or liposome-entrapped drug; settings: 6 mg/kg i.v.
Method: as §1, §2

Compound	efficiency of entrapment in liposomes [1]	T/c (%) ([2]; 2 mg/kg i.p.)	T/c (%) ([2]; 4 mg/kg i.p.)	T/c (%) ([2]; 6 mg/kg i.p.)	T/c (%) ([2]; 6 mg/kg i.p., listed as daunorubicin)	T/c (%) ([2]; 15 mg/kg l.v)	T/c (%) ([2]; 20 mg/kg i.v.)	mortality [3]	peak drug concentration in the kidney [4]	peak plasma concentration (doxorubicin) [5]	T/c (%) ([2]; 15 mg/kg i.p.)	T/c (%) ([2]; 20 mg/kg i.p.)
COc1cccc2c1C(=O)c1c(O)c3c(c(O)c1C2=O)C[C@@](O)(C(C)=O)C[C@@H]3O[C@H]1C[C@H](N)[C@H](O)[C@H](C)O1 [Free Daunorubicin, daunorubicin]	75-85%	145.5%	136.4%	109.1%	109%	145.5%	154.5%					
COc1cccc2c1C(=O)c1c(O)c3c(c(O)c1C2=O)C[C@@](O)(C(=O)CO)C[C@@H]3O[C@H]1C[C@H](N)[C@H](O)[C@H](C)O1 [Free Doxorubicin, doxorubicin]	65-75%							100%	41.0 µg/gm	2.4 µg/mL	130%	100%
